Laboratory results: patent publication EP1137645B1, “ALPHA-METHYLBENZYL-CONTAINING THIOUREA INHIBITORS OF HERPES VIRUSES CONTAINING A […] GROUP” (Wyeth, priority 1998, dated 2000)
Values after ≈ are worked out from the molar mass of the structure shown. Where two headings read alike, the source gives them in different places.

How the values were obtained:
[1] = system: HCMV recombinant mutant virus whose genome contains the prokaryotic beta-glucuronidase gene; assay: microbe, parasite or virus in culture; assay type: cell-based, human cytomegalovirus; settings: Human betaherpesvirus 5, Fibroblast
Description: Microtiter plate assay. Ninety-six well plate cultures of human foreskin fibroblasts are infected in the presence of inhibitor compound with a HCMV recombinant mutant virus whose genome contains the prokaryotic beta-glucuronidase gene (Jefferson, R. A., S. M. Burgess, and D. Hirsh. 1986. Beta-glucuronidase from Escherichia coli as a gene fusion marker. Proc. Natl. Acad. Sci. USA 83:8447-8451) whose expression is controlled by a viral promoter. An example of such a virus is RV145 (Jones, T. R., V. P. Muzithras, and Y. Gluzman. 1991. Replacement mutagenesis of the human cytomegalovirus genome: US10 and US11 gene products are nonessential. J. Virol. 65:5860-5872). Since it is under the control of a viral promoter, beta-glucuronidase expression is an indirect indicator of growth and replication of HCMV in this assay. At 96 hours post-infection, the infected cell lysates are prepared (using 50mM sodium phosphate [pH7.0] containing 0.1% Triton X-100 and 0.1% sarkosyl) and assayed for beta-glucuronidase activity using a substrate for the enzyme which when cleaved yields either a product which can be measured colorimetrically in a spectrophotometer or fluorescently in a microfluorimeter. Examples of such substrates are p-nitrophenyl-beta-D-glucuronide and methylumbelliferylglucuronide, respectively. The presence of an antiviral compound is indicated by the reduced expression of the HCMV genome resident beta-glucuronidase gene, compared to the absence of inhibitor. […] Data from this assay generated using varying amounts of inhibitor compound is also used to estimate the IC50 of an inhibitor compound.

HSV- I = assay: HSV antiviral (ELISA) assay; assay type: cell-based; settings: read-out: IC50 (ug/ml) HSV
Protocol: Vero cells (ATCC #CCL-81) are plated on 96-well tissue culture plates at 3.5x10^4 cells per 100µl tissue culture DMEM (Dulbecco's modified Eagle media) supplemented with 2% fetal bovine serum (FBS) in each well. After overnight incubation @ 37°C (in 5% CO2) and 30 minutes prior to infection with HSV- I (multiplicity of infection equal to 0.006), cells are either untreated, or treated with test compound (multiple concentrations) or reference standard drug control. After approximately 24 hours post-infection incubation @ 37°C (in 5% CO2), cells are fixed for ELISA assay. The primary antibody is murine anti-HSV glycoprotein D monoclonal primary antibody and the secondary antibody is goat anti-mouse IgG linked to β-galactosidase. Thus the extent of viral replication is determined by assessing β-galactosidase activity by quantifying the generation of the 4-methyl umbelliferone fluorescent cleavage product after addition of the methyl umbelliferyl-β-D-galactoside (Sigma #M1633) substrate on a microfluorimeter (365nm for excitation and 450nm for emission). Antiviral activity (IC50) of the test compound is determined by comparing the flourescence obtained in absence of compound to that obtained in the presence of compound.

VZV strain Ellen = assay: VZV antiviral (ELISA) assay; assay type: cell-based
Protocol: For the generation of stock VZV to be used in the assay, VZV strain Ellen (ATCC #VR-1367) is used to infect human foreskin fibroblast (HFF) cells at low multiplicity (less than 0.1) and incubated overnight at 37°C in 5% CO2. After the overnight incubation, the mixture of uninfected and VZV-infected HFF infected cells are then harvested and added to each well of 96-well plates (3.5x10^4 cells in 100 µl DMEM supplemented with 2% FBS) which contain test compound or the reference standard drug control (in 100µl DMEM supplemented with 2% FBS per well). These cells are incubated for three days at 37°C in 5% CO2, then fixed for ELISA assay. The primary antibody is murine anti-VZV glycoprotein II monoclonal antibody (Applied Biosystems, Inc. #13-145-100) and the secondary antibody is goat anti-mouse IgG linked to β-galactosidase. Thus the extent of viral replication is determined by assessing β-galactosidase activity by quantifying the generation of the 4-methyl umbelliferone fluorescent cleavage product after addition of the methyl umbelliferyl-β-D-galactoside (Sigma #M1633) substrate on a microfluorimeter (365nm for excitation and 450nm for emission). Antiviral activity (IC50) of the test compound is determined by comparing the flourescence obtained in absence of compound to that obtained in the presence of compound.

[2] = read-out: IC50 ug/ml HCMV, HCMV, human foreskin fibroblasts

Structure (SMILES) | IC50 [1, 2] [µg/mL] | IC50 (HSV- I; Vero) [µg/mL] | also measured
Cc1cc(CCNC(=S)Nc2ccc(NC(=O)c3ccccc3F)cc2)ccc1N(C)C [Example 673, N-(4-{3-[2-(4-Dimethylamino-3-methyl-phenyl)-ethyl]-thioureido}-phenyl)-2-fluoro-benzamide] | > 0.5 | 7 (≈ 15.5 µM) | –
CC(NC(=S)Nc1ccc(NC(=O)c2ccc(N(C)C)cc2)cc1)c1ccc(F)cc1 (centres unmarked) [Example 765, 4-Dimethylamino-N-(4-{3-[1-(4-fluoro-phenyl)-ethyl]-thioureido}-phenyl)-benzamide] | 2.3 (≈ 5.27 µM) | 10 (≈ 22.9 µM) | –
O=C(Nc1ccc(NC(=S)NCCSc2ccccc2)cc1)c1ccccc1F [Example 656, 2-Fluoro-N-{4-[3-(2-phenylsulfanyl-ethyl)-thioureido]-phenyl}-benzamide] | > 0.5 | 5 (≈ 11.7 µM) | –
O=C(Nc1ccc(NC(=S)NCCSc2cccc(Br)c2)cc1)c1ccccc1F [Example 680, N-(4-{3-[2-(3-Bromo-phenylsulfanyl)-ethyl]-thioureido}-phenyl)-2-fluoro-benzamide] | > 0.5 | > 10 | –
COc1ccccc1C(=O)Nc1ccc(NC(=S)NC(C)c2ccc(F)cc2)cc1 (centres unmarked) [Example 752, N-(4-{3-(1-(4-Fluoro-phenyl)-ethyl]-thioureido}-phenyl)-2-methoxy-benzamide] | > 0.5 | > 10 | –
O=C(Nc1ccc(NC(=S)NCc2cccc(I)c2)cc1)c1ccccc1F [Example 661, 2-Fluoro-N-{4-[3-(3-iodo-benzyl)-thioureido]-phenyl}-benzamide] | – | – | IC50 ([1]; read-out: IC50 ug/ml HCMV): > 0.5 µg/mL; IC50 (HSV- I; HSV- I, Vero cells, ELISA): > 10 µg/mL
O=C(Nc1ccc(NC(=S)NCc2cc(C(F)(F)F)ccc2F)cc1)c1ccccc1F [Example 669, 2-Fluoro-N-{4-[3-(2-fluoro-5-trifluoromethyl-benzyl)-thioureido]-phenyl}-benzamide] | – | – | IC50 ([1]; read-out: IC50 ug/ml HCMV): > 0.5 µg/mL; IC50 (HSV- I; HSV- I, Vero cells, ELISA): > 10 µg/mL
O=C(Nc1ccc(NC(=S)Nc2ccc(Cl)cc2)cc1)c1ccccc1F [Example 946, N-{4-[3-(4-Chloro-phenyl)-thioureido]-phenyl}-2-fluoro-benzamide] | > 10 | > 10 | –
O=C(Nc1ccc(NC(=S)Nc2cccc(Cl)c2Cl)cc1)c1ccccc1F [Example 927, N-{4-[3-(2,3-Dichloro-phenyl)-thioureido]-phenyl}-2-fluoro-benzamide] | 2 (≈ 4.6 µM) | 5 (≈ 11.5 µM) | –
CN1CCN(c2ccc(CNC(=S)Nc3ccc(NC(=O)c4ccccc4F)cc3)cc2C(F)(F)F)CC1 [Example 687, 2-Fluoro-N-(4-{3-[4-(4-methyl-piperazin-1-yl)-3-trifluoromethyl-benzyl]-thioureido}-phenyl)-benzamide] | > 0.5 | 1.2 (≈ 2.2 µM) | –
O=C(Nc1ccc(NC(=S)NCc2ccc(F)c(Cl)c2)cc1)c1ccccc1F [Example 677, N-{4-[3-(3-Chloro-4-fluoro-benzyl)-thioureido]-phenyl}-2-fluoro-benzamide] | > 0.5 | > 10 | –
O=C(Nc1ccc(NC(=S)NCCOc2ccc(I)cc2)cc1)c1ccccc1F [Example 696, 2-Fluoro-N-(4-{3-[2-(4-iodo-phenoxy)-ethyl]-thioureido}-phenyl)-benzamide] | – | – | IC50 ([1]; read-out: IC50 ug/ml HCMV): > 3 µg/mL; IC50 (HSV- I; HSV- I, Vero cells, ELISA): 10 µg/mL (≈ 18.7 µM)
O=C(Nc1ccc(NC(=S)NCCc2ccccc2F)cc1)c1ccccc1F [Example 721, 2-Fluoro-N-(4-{3-[2-(2-fluoro-phenyl)-ethyl]-thioureido}-phenyl)-benzamide] | – | – | IC50 (HSV- I; HSV- I, Vero cells, ELISA): > 10 µg/mL
CC(C)(C)c1ccc(CNC(=S)Nc2ccc(NC(=O)c3ccccc3F)cc2)cc1 [Example 724, N-{4-[3-(4-tert-Butyl-benzyl)-thioureido]-phenyl}-2-fluoro-benzamide] | – | > 10 | –
O=C(Nc1ccc(NC(=S)NCCOc2ccc(Br)cc2)cc1)c1ccccc1F [Example 695, N-(4-{3-[2-(4-Bromo-phenoxy)-ethyl]-thioureido}-phenyl)-2-fluoro-benzamide] | > 3 | > 10 | –
Cc1cc(C)cc(CNC(=S)Nc2ccc(NC(=O)c3ccccc3F)cc2)c1 [Example 725, N-{4-[3-(3,5-Dimethyl-benzyl)-thioureido]-phenyl}-2-fluoro-benzamide] | – | > 10 | –
O=C(Nc1ccc(NC(=S)NCCc2ccc(Cl)c(Cl)c2)cc1)c1ccccc1F [Example 719, N-(4-{3-[2-(3,4-Dichloro-phenyl)-ethyl]-thioureido}-phenyl)-2-fluoro-benzamide] | > 0.5 | > 10 | –
O=C(Nc1ccc(NC(=S)NCc2ccc(F)c(F)c2)cc1)c1ccccc1F [Example 672, N-{4-[3-(3,4-Difluoro-benzyl)-thioureido]-phenyl}-2-fluoro-benzamide] | – | – | IC50 ([1]; read-out: IC50 ug/ml HCMV): > 0.5 µg/mL; IC50 (HSV- I; HSV- I, Vero cells, ELISA): > 10 µg/mL
O=C(Nc1ccc(NC(=S)NCCOc2cccc(Cl)c2)cc1)c1ccccc1F [Example 666, N-(4-{3-[2-(3-Chloro-phenoxy)-ethyl]-thioureido}-phenyl)-2-fluoro-benzamide] | > 0.5 | 10 (≈ 22.5 µM) | –
O=C(Nc1ccc(NC(=S)NCCOc2cc(Cl)cc(Cl)c2)cc1)c1ccccc1F [Example 664, N-(4-{3-[2-(3,5-Dichloro-phenoxy)-ethyl]-thioureido}-phenyl)-2-fluoro-benzamide] | > 0.5 | 10 (≈ 20.9 µM) | –
O=C(Nc1ccc(NC(=S)Nc2cccc(Cl)c2)cc1)c1ccccc1F [Example 944, N-{4-[3-(3-Chloro-phenyl)-thioureido]-phenyl}-2-fluoro-benzamide] | 3 (≈ 7.5 µM) | > 10 | –
O=C(Nc1ccc(NC(=S)NC(c2ccccc2)c2ccc(F)cc2)cc1)c1ccccc1F (centres unmarked) [Example 772, 2-Fluoro-N-(4-{3-[(4-fluoro-phenyl)-phenyl-methyl]-thioureido}-phenyl)-benzamide] | 0.35 (≈ 0.739 µM) | > 10 | –
CC(C)(NC(=S)Nc1ccc(NC(=O)c2ccccc2F)cc1)c1ccccc1 [Example 727, 2-Fluoro-N-{4-[3-(1-methyl-1-phenyl-ethyl)-thioureido]-phenyl}-benzamide] | – | > 10 | –
CCC(NC(=S)Nc1ccc(NC(=O)c2ccccc2F)cc1)c1ccc(F)cc1 (centres unmarked) [Example 771, 2-Fluoro-N-(4-{3-[1-(4-fluoro-phenyl)-propyl]-thioureido}-phenyl)-benzamide] | 0.4 (≈ 0.94 µM) | > 10 | –
CC(NC(=S)Nc1ccc(NC(=O)c2nccc3ccccc23)cc1)c1ccc(F)cc1 (centres unmarked) [Example 1110, Isoquinoline-1-carboxylic acid (4-{3-[1-(4-fluoro-phenyl)-ethyl]-thioureido}-phenyl)-amide] | – | – | IC50 (VZV strain Ellen; Human alphaherpesvirus 3, VZV strain Ellen, HFF cells, ELISA, read-out: IC50 (ug/ml) VZV): 0.05 µg/mL (≈ 0.112 µM); IC50 ([1]; read-out: IC50 ug/ml HCMV): 3.3 µg/mL (≈ 7.42 µM)
O=C(Nc1ccc(NC(=S)Nc2cc(N3CCCC3)cc(C(F)(F)F)c2)cc1)c1ccccc1F [Example 566, 2-Fluoro-N-{4-[3-(3-pyrrolidin-1-yl-5-trifluoromethyl-phenyl)-thioureido]-phenyl}-benzamide] | > 0.5 | – | IC50 (VZV strain Ellen; Human alphaherpesvirus 3, HFF, read-out: IC50 (ug/ml) VZV, VZV strain Ellen, HFF cells, ELISA): 2 µg/mL (≈ 3.98 µM)
CN(C)c1cc(CCNC(=S)Nc2ccc(NC(=O)c3ccccc3F)cc2)cc(C(F)(F)F)c1 [Example 653, N-(4-{3-[2-(3-Dimethylamino-5-trifluoromethyl-phenyl)-ethyl]-thioureido}-phenyl)-2-fluoro-benzamide] | > 0.5 | > 10 | –
